The text below walks through data of article PMC8617627, “Novel DYRK1A Inhibitor Rescues Learning and Memory Deficits in a Mouse Model of Down Syndrome” (Pharmaceuticals, 2021).

Where two headings read alike, the source gives them in different places.

Common to all, as to test: Kinase profile (33P ATP filter binding)
Holding throughout (assay type): biochemical
What all share (conditions): read-out: Remaining protein kinase activity

Assay [1] deals with PRK2 (Homo sapiens, UniProt Q16513). The method, then: (§1) The compounds were diluted to the appropriate concentration. The compounds were added to a “mother plate” consisting of samples, controls, and blanks. These serve as the source for “daughter plates” which are stored at −20 °C until assay initiation. Protein Kinases: Enzyme/Substrate mixture was added to the compound, and the compounds were incubated for five minutes at room temperature (RT). ^33P ATP was added to the compounds to initiate the assay. Orthophosphoric acid was added to the compounds to halt the assay. Assay components were harvested onto P81 filter plates, filter plates were air-dried, scintillation fluid was added to plates, and counts were read on a Topcount NXT. A mean percentage activity was calculated.

Assay [2] addresses T1, LKB1 (Homo sapiens, UniProt Q15831).
T1 sequence (Q15831 1-433): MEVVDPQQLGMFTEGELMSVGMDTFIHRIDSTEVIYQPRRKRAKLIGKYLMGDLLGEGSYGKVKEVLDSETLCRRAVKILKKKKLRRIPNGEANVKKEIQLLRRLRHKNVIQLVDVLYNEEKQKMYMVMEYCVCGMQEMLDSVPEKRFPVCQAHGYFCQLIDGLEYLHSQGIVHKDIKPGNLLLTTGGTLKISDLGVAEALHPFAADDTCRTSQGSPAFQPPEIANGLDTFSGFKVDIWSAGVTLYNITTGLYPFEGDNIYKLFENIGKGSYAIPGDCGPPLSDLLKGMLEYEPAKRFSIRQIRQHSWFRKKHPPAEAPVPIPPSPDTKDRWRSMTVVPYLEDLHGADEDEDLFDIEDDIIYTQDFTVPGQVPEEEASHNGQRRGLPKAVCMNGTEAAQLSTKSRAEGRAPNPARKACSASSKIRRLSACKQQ
T1 sequence (Q7RTN6 1-431 partner): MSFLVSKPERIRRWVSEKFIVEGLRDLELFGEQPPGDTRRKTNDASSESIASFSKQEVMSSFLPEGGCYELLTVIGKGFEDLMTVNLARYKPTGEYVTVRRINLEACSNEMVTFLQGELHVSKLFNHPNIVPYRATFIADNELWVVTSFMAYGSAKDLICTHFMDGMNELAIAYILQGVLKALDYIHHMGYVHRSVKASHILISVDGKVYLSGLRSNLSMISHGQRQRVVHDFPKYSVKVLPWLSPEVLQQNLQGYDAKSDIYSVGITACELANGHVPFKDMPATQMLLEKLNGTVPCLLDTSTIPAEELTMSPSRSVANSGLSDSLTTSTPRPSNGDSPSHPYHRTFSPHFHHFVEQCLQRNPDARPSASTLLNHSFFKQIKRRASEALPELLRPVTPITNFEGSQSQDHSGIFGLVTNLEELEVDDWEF
T1 sequence (Q9Y376 1-341 partner): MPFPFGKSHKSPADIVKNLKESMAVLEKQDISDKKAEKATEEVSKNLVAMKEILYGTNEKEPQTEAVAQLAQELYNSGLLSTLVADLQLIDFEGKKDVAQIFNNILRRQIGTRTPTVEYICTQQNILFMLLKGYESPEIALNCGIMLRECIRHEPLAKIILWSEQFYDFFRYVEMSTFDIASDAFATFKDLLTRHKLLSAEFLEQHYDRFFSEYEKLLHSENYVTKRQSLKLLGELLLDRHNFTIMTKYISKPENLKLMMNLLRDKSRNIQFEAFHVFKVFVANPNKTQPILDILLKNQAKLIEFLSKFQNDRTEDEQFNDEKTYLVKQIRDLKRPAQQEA
The method, then: as §1

The target of assay [3] is T2, ASK1 (Homo sapiens, UniProt Q99683).
T2 sequence (Q99683 1-1374): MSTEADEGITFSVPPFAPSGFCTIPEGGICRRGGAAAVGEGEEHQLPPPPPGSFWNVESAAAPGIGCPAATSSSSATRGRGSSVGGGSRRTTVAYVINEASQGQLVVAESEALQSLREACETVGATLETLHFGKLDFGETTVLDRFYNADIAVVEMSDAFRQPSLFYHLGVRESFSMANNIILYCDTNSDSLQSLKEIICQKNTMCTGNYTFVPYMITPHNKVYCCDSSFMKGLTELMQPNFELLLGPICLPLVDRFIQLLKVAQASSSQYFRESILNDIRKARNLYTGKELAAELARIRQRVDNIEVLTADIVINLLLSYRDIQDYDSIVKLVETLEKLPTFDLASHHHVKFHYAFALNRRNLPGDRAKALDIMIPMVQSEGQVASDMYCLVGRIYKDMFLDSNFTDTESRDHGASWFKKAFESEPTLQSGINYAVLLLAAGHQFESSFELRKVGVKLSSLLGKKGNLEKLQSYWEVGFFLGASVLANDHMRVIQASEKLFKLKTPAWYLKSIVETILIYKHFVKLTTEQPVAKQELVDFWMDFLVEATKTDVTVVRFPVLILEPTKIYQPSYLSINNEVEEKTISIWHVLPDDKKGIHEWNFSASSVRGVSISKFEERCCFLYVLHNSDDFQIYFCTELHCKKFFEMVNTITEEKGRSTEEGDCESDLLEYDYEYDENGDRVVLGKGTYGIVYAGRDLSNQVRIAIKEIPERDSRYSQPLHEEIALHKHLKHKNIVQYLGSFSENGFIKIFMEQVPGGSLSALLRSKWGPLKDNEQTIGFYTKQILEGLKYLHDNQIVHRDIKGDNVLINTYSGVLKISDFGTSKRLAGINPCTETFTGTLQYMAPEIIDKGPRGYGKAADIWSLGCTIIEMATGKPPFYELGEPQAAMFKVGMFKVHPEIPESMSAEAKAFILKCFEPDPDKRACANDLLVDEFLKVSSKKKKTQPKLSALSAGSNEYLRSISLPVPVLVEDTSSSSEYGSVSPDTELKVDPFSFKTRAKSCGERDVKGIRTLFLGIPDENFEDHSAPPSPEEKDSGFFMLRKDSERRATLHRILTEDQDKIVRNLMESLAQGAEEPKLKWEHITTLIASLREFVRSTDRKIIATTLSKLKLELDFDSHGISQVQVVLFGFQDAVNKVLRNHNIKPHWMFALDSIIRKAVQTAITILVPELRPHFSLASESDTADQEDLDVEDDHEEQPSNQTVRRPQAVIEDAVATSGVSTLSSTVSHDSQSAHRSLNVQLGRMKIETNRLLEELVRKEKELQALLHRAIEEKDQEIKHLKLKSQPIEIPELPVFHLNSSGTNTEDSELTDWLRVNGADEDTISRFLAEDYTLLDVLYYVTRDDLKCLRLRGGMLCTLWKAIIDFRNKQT
The protocol:
as §1

Assay [4] addresses AMPK (hum) (Homo sapiens, UniProt Q13131). The method, then:
as §1

Chain of AMPK (hum) (Q13131 whole entry): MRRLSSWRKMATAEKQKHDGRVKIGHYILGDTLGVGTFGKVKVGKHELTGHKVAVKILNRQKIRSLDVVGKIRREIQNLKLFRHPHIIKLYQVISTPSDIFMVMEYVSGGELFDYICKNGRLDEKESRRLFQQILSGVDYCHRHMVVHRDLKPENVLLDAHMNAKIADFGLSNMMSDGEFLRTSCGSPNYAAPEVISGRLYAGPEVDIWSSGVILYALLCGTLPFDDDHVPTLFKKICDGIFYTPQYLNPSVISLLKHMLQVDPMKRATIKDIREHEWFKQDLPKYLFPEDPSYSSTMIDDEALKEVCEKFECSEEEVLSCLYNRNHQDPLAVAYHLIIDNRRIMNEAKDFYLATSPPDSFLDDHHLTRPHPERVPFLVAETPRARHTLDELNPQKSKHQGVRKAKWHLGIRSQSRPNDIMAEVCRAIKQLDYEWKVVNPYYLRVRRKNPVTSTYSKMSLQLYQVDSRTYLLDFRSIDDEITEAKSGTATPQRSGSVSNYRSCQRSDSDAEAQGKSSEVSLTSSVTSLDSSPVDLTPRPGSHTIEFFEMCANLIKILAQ
Chain of AMPK (hum) (O43741 whole entry partner): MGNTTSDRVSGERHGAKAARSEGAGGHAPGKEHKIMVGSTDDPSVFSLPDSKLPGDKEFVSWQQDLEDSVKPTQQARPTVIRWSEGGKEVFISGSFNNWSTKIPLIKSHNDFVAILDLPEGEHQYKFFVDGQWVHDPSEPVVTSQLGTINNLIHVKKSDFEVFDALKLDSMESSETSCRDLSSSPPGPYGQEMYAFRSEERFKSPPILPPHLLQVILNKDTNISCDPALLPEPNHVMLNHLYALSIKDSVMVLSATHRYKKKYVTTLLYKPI
Chain of AMPK (hum) (P54619 whole entry partner): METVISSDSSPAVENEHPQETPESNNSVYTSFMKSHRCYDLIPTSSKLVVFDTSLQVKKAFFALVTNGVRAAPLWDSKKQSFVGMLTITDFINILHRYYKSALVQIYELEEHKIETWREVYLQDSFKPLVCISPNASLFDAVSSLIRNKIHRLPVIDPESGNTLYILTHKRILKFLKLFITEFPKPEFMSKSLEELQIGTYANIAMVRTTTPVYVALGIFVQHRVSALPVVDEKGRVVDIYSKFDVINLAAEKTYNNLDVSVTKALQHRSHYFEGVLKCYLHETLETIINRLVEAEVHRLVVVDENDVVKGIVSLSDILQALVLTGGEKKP
Chain of PRK2 (Q16513 whole entry, species assumed): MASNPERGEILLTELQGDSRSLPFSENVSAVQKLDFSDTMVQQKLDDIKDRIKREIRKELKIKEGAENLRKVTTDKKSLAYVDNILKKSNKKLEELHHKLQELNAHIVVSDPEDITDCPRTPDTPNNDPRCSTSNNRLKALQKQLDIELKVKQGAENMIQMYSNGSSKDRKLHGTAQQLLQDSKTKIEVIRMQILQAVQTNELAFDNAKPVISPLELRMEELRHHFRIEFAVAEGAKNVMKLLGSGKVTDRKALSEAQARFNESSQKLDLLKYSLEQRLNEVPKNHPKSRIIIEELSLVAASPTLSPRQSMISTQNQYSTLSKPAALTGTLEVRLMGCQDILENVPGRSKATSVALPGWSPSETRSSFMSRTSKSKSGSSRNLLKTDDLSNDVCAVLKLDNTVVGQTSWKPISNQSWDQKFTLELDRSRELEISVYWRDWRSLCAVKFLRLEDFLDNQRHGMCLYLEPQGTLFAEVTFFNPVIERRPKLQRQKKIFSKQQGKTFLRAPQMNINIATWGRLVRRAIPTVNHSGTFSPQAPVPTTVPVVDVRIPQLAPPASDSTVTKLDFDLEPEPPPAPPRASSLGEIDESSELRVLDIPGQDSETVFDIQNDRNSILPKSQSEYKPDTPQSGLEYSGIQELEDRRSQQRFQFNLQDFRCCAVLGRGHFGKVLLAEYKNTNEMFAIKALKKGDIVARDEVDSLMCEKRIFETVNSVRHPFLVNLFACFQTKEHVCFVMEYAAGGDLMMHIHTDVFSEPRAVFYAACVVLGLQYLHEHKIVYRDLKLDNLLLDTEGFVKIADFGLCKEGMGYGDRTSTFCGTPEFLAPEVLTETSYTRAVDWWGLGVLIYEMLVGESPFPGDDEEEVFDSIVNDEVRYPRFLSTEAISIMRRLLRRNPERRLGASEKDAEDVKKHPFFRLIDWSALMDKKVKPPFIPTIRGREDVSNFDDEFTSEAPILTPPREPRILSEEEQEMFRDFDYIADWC

For `COc1ccc2sc(-c3cncc(N)c3)nc2c1` [compound 1, 5-(5-Methoxybenzo[d]thiazol-2-yl)pyridin-3-amine], the remaining activity – broadly, the signal under treatment as a percentage of the control signal – at 1 µM in assay [1] (PRK2, 1 μM) worked out at 103%; in assay [2] (LKB1, 1 μM), 109%; in assay [3] (ASK1, 1 μM), 116%; in assay [4] (AMPK (hum), 1 μM), 107%. The remaining activity at 100 µM in assay [1] (PRK2, 100 μM) turned out to be 74%; in assay [2] (LKB1, 100 μM) it was 161%; in assay [3] (ASK1, 100 μM), 150%; in assay [4] (AMPK (hum), 100 μM) it was 46%.
As for `COc1ccc2sc(-c3cncc(NC(C)=O)c3)nc2c1` [PST-001, N-(5-(5-Methoxybenzo[d]thiazol-2-yl)pyridin-3-yl)acetamide], the remaining activity at 1 µM in assay [1] worked out at 102%; in assay [2], 123%; in assay [3] it was 114%; in assay [4], 99%. Further, the remaining activity at 100 µM in assay [1] stood at 101%; in assay [2], 150%; in assay [3] it was 131%; in assay [4] it was 69%.
